Results: patent US20100113334A1, “METHODS FOR REDUCING OR PREVENTING TRANSMISSION OF NOSOCOMIAL PATHOGENS IN A HEALTH CARE FACILITY” (priority 2003, published 2010)
Like-named read-outs stand apart in the source and are kept apart here.

Legend:
Total Enterococci = test: VRE suppression in a mouse model (Example 1), total enterococci in faeces; type: in vivo, mice
From the text: Mice were colonized with a clinical isolate VanA strain of E. faecium (VRE) isolated from a septicemic patient. A single inoculation of 5×10^8 cfu VRE by oral gavage (Day 0) was followed by treatment with vancomycin in the drinking water to maintain colonization. On day 22, each group received the same vancomycin-containing drinking water. […] The control group consisted of five mice, while the ramoplanin group consisted of four mice.

[1] = system: VRE (VRE faecium, VRE faecalis); test: In vitro activity (MIC90), internal Phase II isolates; type: cell-based, vancomycin-resistant Enterococcus; conditions: 235 strains, internal Phase II data
E. faecium = conditions: 10 strains; cited from earlier work
S. aureus (MRSA) = conditions: 100 strains; cited from earlier work
VRE C68 = test: Eradication of VRE stool colonization in mice (Example 2); type: in vivo
Protocol: (§1) Quantification of Stool Pathogens: Fresh stool specimens were processed as described by Donskey et al. (supra). In order to quantify VRE, K. pneumoniae, and C. glabrata, diluted samples were plated onto Enterococcosel agar containing vancomycin 20 μg/mL, MacConkey agar containing ceftazidime 10 μg/mL, or Sabouraud Dextrose Agar (Becton, Dickinson, and Company, Sparks, Md.) containing piperacillin/tazobactam 16 μg/mL and linezolid 8 μg/mL, respectively. The plates were incubated in room air at 37° C. far 24 or 48 hours, and the number of colony-forming units (CFU) of each pathogen per gram of sample was calculated.
High-density VRE stool colonization was established in mice by administering subcutaneous clindamycin (1.4 mg) once each day for 2 days before and 7 days after orogastric inoculation of 10^6 colony-forming units (CFU) of VRE C68 using a stainless steel feeding tube (Perfektum, Popper & Sons, New Hyde Park, N.Y.). […] Six mice were included in each treatment group.
To evaluate the possibility that ramoplanin-treated mice were being re-exposed to VRE from their environment, broth-enrichment cultures for VRE were performed as previously described Ray et al. (JAMA 287: 1400-1401, 2002) after contacting cage bottoms and tops, water bottles, and food with pre-moistened cotton-tipped swabs.

VRE = test: Prevention of cross-transmission of VRE among mice in communal cages (Example 5); type: in vivo
Protocol: One set of experiments was performed to evaluate the ability of ramoplanin to prevent cross-transmission and overgrowth of VRE among mice in communal cages. High-density VRE stool colonization (˜7 log10 CFU/g) was established in 2 mice as described above. […] All mice were treated with subcutaneous clindamycin (1.4 mg) once daily for 5 days. After 9 days, all mice were separated into individual cages and supplied with regular drinking water.

Bacteroides species = test: Effect on indigenous stool microflora (Example 3), quantitative culture; type: in vivo, mice; conditions: 100 μg/mL in drinking water, seven days
Enterococcus species = test: as above; type: in vivo, mice
K. pneumoniae P62 = test: Establishment of colonization during ramoplanin treatment (Example 6); type: in vivo, mice; conditions: inoculated on day 2 of a 6-day course, 100 μg/ml in drinking water
Protocol: as §1
The density of the pathogens in stool was monitored every 3-4 days. Four mice were included in each treatment group.

total anaerobes = test: Effect on indigenous stool microflora (Example 3), quantitative culture; type: in vivo, mice; conditions: 100 μg/mL in drinking water, seven days
[2] = day 8 of 100 μg/ml drinking water, 8 mice

## Ramoplanin
100 μg/ml dose, 3 days after discontinuation (day 10)
  ramoplanin in stool: no ramoplanin was detectable
100 μg/ml dose, day 7 of treatment, n=5 mice
  concentration in stool, range: 156 to 312.5 µg/g
300 μg/ml dose, day 7, n=5 mice
  concentration in stool, range: 300 to 320 µg/g
Total Enterococci; Day 22, prior to ramoplanin therapy
  Enterococci: Total Enterococci: 9.8 log 10 cfu/g faeces
Total Enterococci; Day 29, completion of ramoplanin therapy
  Enterococci: Total Enterococci: <2.4 log 10 cfu/g faeces
Total Enterococci; Day 36, 7 days after completion of ramoplanin therapy
  Enterococci: Total Enterococci: 8.6 log 10 cfu/g faeces
[1]
  Ramoplanin MIC90: 0.5 µg/mL
E. faecium
  Ramoplanin MIC90: 0.5 µg/mL
S. aureus (MRSA)
  Ramoplanin MIC90: 0.25 µg/mL
VRE C68; 100 μg/ml in drinking water
  mice that developed a recurrence of colonization after discontinuing treatment: One hundred
VRE C68; 500 μg/ml in drinking water
  mice that developed a detectable recurrence of colonization after discontinuing treatment: 50%
VRE C68; 100 or 500 μg/ml in drinking water, 8 days, P<0.0001 vs controls
  levels of VRE in stool during treatment: undetectable levels
VRE C68; [2]
  mice with VRE detectable in sections of the cecal lining: 25%
  mice with negative stool and cecal content cultures for VRE: 100%
VRE C68; the 2 positive mice, day 8 of 100 μg/ml drinking water
  level of VRE in sections of the cecal lining: 2-3 log10 CFU/g
VRE; 100 μg/ml in drinking water, clindamycin-treated mice
  VRE colonization in the colonized mouse added to the communal cage: rapidly inhibited
VRE; 100 μg/ml in drinking water, communal cage
  VRE colonization of the other mice during ramoplanin treatment: none of the other mice developed detectable levels of colonization
VRE; within 5 days after transfer to individual cages, 4 of 5 mice
  mice with VRE colonization detected after discontinuation of ramoplanin: 80%
Bacteroides species
  mean density of Bacteroides species in stool: not significantly affected
Enterococcus species; at least 11 days after discontinuation (day 18)
  Enterococcus species in stool: remained significantly reduced
Enterococcus species; ramoplanin treatment, P<0.001
  Enterococcus species in stool: significantly reduced
K. pneumoniae P62
  overgrowth of K. pneumoniae P62 in stool: facilitated overgrowth
Total anaerobes
  mean density of total anaerobes in stool: not significantly affected
